Experimental data published in ChEMBL document CHEMBL1909046, “DrugMatrix in vitro pharmacology data”.

What was measured:
[1] = biological target: 5-hydroxytryptamine receptor 6 (Homo sapiens, UniProt P50406); type: cell membranes, HeLa, Membrane; conditions: hela; further: in other assays of this panel Not Active means under 50% inhibition at 10 µM
[2] = biological target: C-C chemokine receptor type 5 (Homo sapiens, UniProt P51681); type: cell membranes, Membrane; conditions: hek293; further: in other assays of this panel Not Active means under 50% inhibition at 10 µM
Glucocorticoid receptor = biological target: T1, Glucocorticoid receptor (Homo sapiens, UniProt P04150); conditions: hela s3; further: in other assays of this panel Not Active means under 50% inhibition at 10 µM
T1 sequence (P04150 whole entry): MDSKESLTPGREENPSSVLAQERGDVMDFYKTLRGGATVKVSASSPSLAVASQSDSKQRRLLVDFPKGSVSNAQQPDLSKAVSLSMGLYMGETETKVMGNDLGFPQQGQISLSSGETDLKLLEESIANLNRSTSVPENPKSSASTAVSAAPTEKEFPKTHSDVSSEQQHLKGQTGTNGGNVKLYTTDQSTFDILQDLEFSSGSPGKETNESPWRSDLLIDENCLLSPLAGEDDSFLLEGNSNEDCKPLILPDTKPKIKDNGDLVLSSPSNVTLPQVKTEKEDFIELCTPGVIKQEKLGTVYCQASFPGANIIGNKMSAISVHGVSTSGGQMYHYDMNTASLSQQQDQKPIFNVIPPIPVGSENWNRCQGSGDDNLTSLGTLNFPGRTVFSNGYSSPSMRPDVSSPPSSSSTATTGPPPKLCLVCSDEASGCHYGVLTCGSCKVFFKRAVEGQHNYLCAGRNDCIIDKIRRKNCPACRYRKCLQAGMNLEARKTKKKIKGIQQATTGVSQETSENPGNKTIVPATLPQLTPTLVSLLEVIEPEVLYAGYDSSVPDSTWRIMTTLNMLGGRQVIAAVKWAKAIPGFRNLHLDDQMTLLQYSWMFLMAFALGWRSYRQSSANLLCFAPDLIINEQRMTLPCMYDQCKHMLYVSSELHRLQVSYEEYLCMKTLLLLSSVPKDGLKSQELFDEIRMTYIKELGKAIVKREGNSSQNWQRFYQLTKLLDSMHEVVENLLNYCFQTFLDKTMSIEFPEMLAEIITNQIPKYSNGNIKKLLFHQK

Adenosine receptor A1 = biological target: T2, Adenosine receptor A1 (Homo sapiens, UniProt P30542); type: cell membranes, CHO, Membrane;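 further: radioligand binding assay at the adenosine A1 receptor, with DPCPX serving as the labelled ligand; in other assays of this panel Not Active means under 50% inhibition at 10 µM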
T2 sequence (P30542 whole entry): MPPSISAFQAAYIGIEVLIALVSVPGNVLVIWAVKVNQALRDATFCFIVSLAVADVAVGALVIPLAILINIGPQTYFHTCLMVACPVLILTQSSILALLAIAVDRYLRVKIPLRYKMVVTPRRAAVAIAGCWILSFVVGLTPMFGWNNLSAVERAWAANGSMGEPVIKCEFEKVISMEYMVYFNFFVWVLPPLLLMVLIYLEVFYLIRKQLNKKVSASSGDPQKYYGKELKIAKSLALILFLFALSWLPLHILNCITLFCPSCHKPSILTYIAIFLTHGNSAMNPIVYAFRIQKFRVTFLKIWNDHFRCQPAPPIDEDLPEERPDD

[3] = biological target: T3, Cysteinyl leukotriene receptor 1 (Homo sapiens, UniProt Q9Y271); type: cell membranes, Membrane; conditions: cho-k1; further: in other assays of this panel Not Active means under 50% inhibition at 10 µM
T3 sequence (Q9Y271 whole entry): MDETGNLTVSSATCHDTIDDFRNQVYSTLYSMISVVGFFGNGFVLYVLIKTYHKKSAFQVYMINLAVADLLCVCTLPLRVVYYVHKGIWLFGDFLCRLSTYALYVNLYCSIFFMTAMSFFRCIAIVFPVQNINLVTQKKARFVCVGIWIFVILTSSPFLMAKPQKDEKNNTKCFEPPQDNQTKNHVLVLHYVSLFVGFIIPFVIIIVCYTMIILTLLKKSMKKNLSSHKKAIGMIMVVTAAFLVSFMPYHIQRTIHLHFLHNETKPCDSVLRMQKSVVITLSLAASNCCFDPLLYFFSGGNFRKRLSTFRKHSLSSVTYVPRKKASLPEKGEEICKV

[4] = biological target: cGMP-specific 3',5'-cyclic phosphodiesterase (Homo sapiens, UniProt O76074); assay: DRUGMATRIX: Phosphodiesterase PDE5 enzyme inhibition (substrate: [3H]cGMP + cGMP); type: tissue-based, Platelet; conditions: Not Active = under 50% inhibition at 10 µM

Chain of C-C chemokine receptor type 5 (P51681 whole entry): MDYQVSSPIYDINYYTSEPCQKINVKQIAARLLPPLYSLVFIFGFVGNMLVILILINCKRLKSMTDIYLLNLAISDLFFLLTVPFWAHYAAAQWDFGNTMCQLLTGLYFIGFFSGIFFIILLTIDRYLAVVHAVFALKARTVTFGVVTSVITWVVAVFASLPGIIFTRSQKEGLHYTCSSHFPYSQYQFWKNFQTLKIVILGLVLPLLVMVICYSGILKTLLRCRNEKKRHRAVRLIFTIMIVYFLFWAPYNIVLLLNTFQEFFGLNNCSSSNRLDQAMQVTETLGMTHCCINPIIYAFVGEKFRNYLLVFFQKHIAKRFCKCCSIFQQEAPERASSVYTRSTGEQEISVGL
Chain of 5-hydroxytryptamine receptor 6 (P50406 whole entry): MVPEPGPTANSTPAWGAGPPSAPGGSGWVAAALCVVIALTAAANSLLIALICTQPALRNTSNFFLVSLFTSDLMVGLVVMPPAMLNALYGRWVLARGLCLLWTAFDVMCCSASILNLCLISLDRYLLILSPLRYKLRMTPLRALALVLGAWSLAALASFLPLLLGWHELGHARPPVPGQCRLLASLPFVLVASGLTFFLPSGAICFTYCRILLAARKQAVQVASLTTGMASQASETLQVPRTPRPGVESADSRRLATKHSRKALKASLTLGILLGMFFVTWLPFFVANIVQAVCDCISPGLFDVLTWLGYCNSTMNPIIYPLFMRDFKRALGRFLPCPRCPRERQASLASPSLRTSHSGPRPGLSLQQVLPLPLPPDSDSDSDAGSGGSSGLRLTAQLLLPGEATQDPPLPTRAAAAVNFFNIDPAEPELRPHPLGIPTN

Row | Compound | IC50 [1] | IC50 [2] | IC50 (Glucocorticoid receptor) | IC50 (Adenosine receptor A1; cho) | IC50 [3] | IC50 ([4]; platelet) | Ki [1] | Ki [2] | Ki (Glucocorticoid receptor) | Ki (Adenosine receptor A1; cho) | Ki [3] | Ki ([4]; platelet) | IC50 (Adenosine receptor A1; read-out: IC50) [µM] | Ki (Adenosine receptor A1; read-out: Ki) [µM] | IC50 ([4]; read-out: IC50) [µM]
1 | Cc1nnc2n1-c1ccc(Cl)cc1C(c1ccccc1)=NC2 [ALPRAZOLAM] | Not Active | Not Active | Not Active | Not Active | Not Active | Not Active | – | – | – | – | – | – | – | – | –
2 | COC(=O)CCc1ccc(OCC(O)CNC(C)C)cc1 (configuration not stated) [ESMOLOL] | Not Active | Not Active | Not Active | Not Active | Not Active | Not Active | – | – | – | – | – | – | – | – | –
3 | COc1ccc2cc3[n+](cc2c1OC)CCc1cc2c(cc1-3)OCO2.[Cl-] [BERBERINE CHLORIDE] | Not Active | Not Active | Not Active | Not Active | Not Active | Not Active | – | – | – | – | – | – | – | – | –
4 | NC(=O)C[S+]([O-])C(c1ccccc1)c1ccccc1 (configuration not stated) [MODAFINIL] | Not Active | Not Active | Not Active | Not Active | Not Active | Not Active | – | – | – | – | – | – | – | – | –
5 | CC(C)=CCC/C(C)=C/CO [GERANIOL] | Not Active | Not Active | Not Active | Not Active | Not Active | Not Active | – | – | – | – | – | – | – | – | –
6 | NCCCC(O)(P(=O)(O)O)P(=O)(O)O [ALENDRONIC ACID] | Not Active | Not Active | Not Active | Not Active | Not Active | Not Active | – | – | – | – | – | – | – | – | –
7 | C[C@@H]1CC[C@@]2(OC1)O[C@H]1[C@@H](O)[C@H]3[C@@H]4CC[C@H]5C[C@@H](O[C@@H]6O[C@H](CO)[C@H](O[C@@H]7O[C@H](CO)C(O)[C@H](O[C@@H]8OC[C@@H](O)[C@H](O)[C@H]8O)[C@H]7O[C@@H]7O[C@H](CO)[C@H](O)[C@H](O[C@@H]8O[C@H](CO)[C@@H](O)[C@H](O)[C@H]8O)[C@H]7O)[C@H](O)[C@H]6O)[C@H](O)C[C@]5(C)[C@H]4CC[C@]3(C)[C@H]1[C@@H]2C (some centres not stated) [DIGITONIN] | Not Active | Not Active | Not Active | Not Active | Not Active | Not Active | – | – | – | – | – | – | – | – | –
8 | O=C1CN=C(c2ccccc2Cl)c2cc([N+](=O)[O-])ccc2N1 [CLONAZEPAM] | Not Active | Not Active | Not Active | Not Active | Not Active | Not Active | – | – | – | – | – | – | – | – | –
9 | AURANOFIN | Not Active | Not Active | – | Not Active | Not Active | Not Active | Not Active | Not Active | 0.599 µM | Not Active | Not Active | Not Active | – | – | –
10 | COC(=O)Nc1nc2ccc(C(=O)c3cccs3)cc2[nH]1 [NOCODAZOLE] | Not Active | Not Active | Not Active | – | Not Active | Not Active | – | – | – | – | – | – | 50.3 | 29.4 | –
11 | C[C@H]1O[C@@H](n2cc(F)c(=O)[nH]c2=O)[C@H](O)[C@@H]1O [DOXIFLURIDINE] | Not Active | Not Active | Not Active | Not Active | Not Active | Not Active | – | – | – | – | – | – | – | – | –
12 | CC(C(=O)O)c1ccc2oc(-c3ccc(Cl)cc3)nc2c1 (configuration not stated) [BENOXAPROFEN] | Not Active | Not Active | Not Active | Not Active | Not Active | Not Active | – | – | – | – | – | – | – | – | –
13 | GADOPENTETATE DIMEGLUMINE | Not Active | Not Active | Not Active | Not Active | Not Active | Not Active | Not Active | Not Active | Not Active | Not Active | Not Active | Not Active | – | – | –
14 | Nc1ccc2c3c(cccc13)C(=O)NC2=O | Not Active | Not Active | Not Active | Not Active | Not Active | Not Active | – | – | – | – | – | – | – | – | –
15 | C[n+]1ccccc1/C=N/O.[Cl-] [PRALIDOXIME CHLORIDE] | Not Active | Not Active | Not Active | Not Active | Not Active | Not Active | – | – | – | – | – | – | – | – | –
16 | NNc1nncc2ccccc12 [HYDRALAZINE] | Not Active | Not Active | Not Active | Not Active | Not Active | Not Active | – | – | – | – | – | – | – | – | –
17 | O=c1cnn([C@@H]2O[C@H](CO)[C@@H](O)[C@H]2O)c(=O)[nH]1 [6-AZAURIDINE] | Not Active | Not Active | Not Active | Not Active | Not Active | Not Active | – | – | – | – | – | – | – | – | –
18 | Cn1c(=O)c2c(ncn2CC(O)CO)n(C)c1=O (configuration not stated) [DYPHYLLINE] | Not Active | Not Active | Not Active | Not Active | Not Active | Not Active | – | – | – | – | – | – | – | – | –
19 | O=c1cc(N2CCOCC2)oc2c(-c3ccccc3)cccc12 [LY-294002] | Not Active | Not Active | Not Active | Not Active | Not Active | – | – | – | – | – | – | – | – | – | 9.61
20 | CC(C)(C)NC(=O)[C@H]1CC[C@H]2[C@@H]3CC[C@H]4NC(=O)C=C[C@]4(C)[C@H]3CC[C@]12C [FINASTERIDE] | Not Active | Not Active | Not Active | Not Active | Not Active | Not Active | – | – | – | – | – | – | – | – | –
21 | CCn1cc(C(=O)O)c(=O)c2cnc(N3CCCC3)nc21 [PIROMIDIC ACID] | Not Active | Not Active | Not Active | Not Active | Not Active | Not Active | – | – | – | – | – | – | – | – | –
22 | CC1(C)S[C@@H]2[C@H](NC(=O)[C@H](N)c3ccccc3)C(=O)N2[C@H]1C(=O)O [AMPICILLIN] | Not Active | Not Active | Not Active | Not Active | Not Active | Not Active | – | – | – | – | – | – | – | – | –
23 | CCN(CC)CCOCCC1=CCC2CC1C2(C)C (configuration not stated) [MYRTECAINE] | Not Active | Not Active | Not Active | Not Active | Not Active | Not Active | – | – | – | – | – | – | – | – | –
24 | COC(=O)Nc1nc2ccc([S+]([O-])c3ccccc3)cc2[nH]1 (configuration not stated) [OXFENDAZOLE] | Not Active | Not Active | Not Active | Not Active | Not Active | Not Active | – | – | – | – | – | – | – | – | –
25 | Oc1c(Cl)cc(Cl)c(Cl)c1Cc1c(O)c(Cl)cc(Cl)c1Cl [HEXACHLOROPHENE] | Not Active | Not Active | Not Active | Not Active | Not Active | Not Active | – | – | – | – | – | – | – | – | –
26 | COC1=C(OC)C(=O)C(CCCCCCCCCCO)=C(C)C1=O [IDEBENONE] | Not Active | Not Active | Not Active | Not Active | Not Active | Not Active | – | – | – | – | – | – | – | – | –
27 | O=C1O[C@H]([C@@H](O)CO)C(O)=C1O [ASCORBIC ACID] | Not Active | Not Active | Not Active | Not Active | Not Active | Not Active | – | – | – | – | – | – | – | – | –
28 | COc1ccc(C2C(=O)c3ccccc3C2=O)cc1 [ANISINDIONE] | Not Active | Not Active | Not Active | Not Active | Not Active | Not Active | – | – | – | – | – | – | – | – | –
29 | Brc1c(NC2=NCCN2)ccc2nccnc12 [BRIMONIDINE] | Not Active | Not Active | Not Active | Not Active | Not Active | Not Active | – | – | – | – | – | – | – | – | –
30 | COc1ccc(C(=O)N2CCCC2=O)cc1 | Not Active | Not Active | Not Active | Not Active | Not Active | Not Active | – | – | – | – | – | – | – | – | –
